Reference: patent US20080051379A1, “Compositions and Methods for the Treatment of Peripheral B-Cell Neoplasms” (Trustees of Boston University, priority 2004, published 2008)

Assays:
Type in all cases: cell-based, human
[1] = test system: glucocorticoid-sensitive subclone (CEM-S2); assay: MTS cell survival assay, CEM-S2; details: dexamethasone-sensitive CCRF-CEM cells; 10 μM, 72 hours
Method: (§1) In FIG. 5A, the polyclonal parental cell line (CCRF-CEM), the single cell-derived glucocorticoid-resistant subclone (CEM-R8) and the single cell-derived glucocorticoid-sensitive subclone (CEM-S2) were cultured for 72 hours in the presence of vehicle (ETOH) or dexamethasone at the concentrations indicated and cell viability was assessed by the MTS assay as described in Methods. In FIG. 5B, the glucocorticoid-resistant subclone (CEM-R8) and the glucocorticoid-sensitive subclone (CEM-S2) were cultured for 72 hours in the presence of hydrocortisone (HC) (10 μM HC for the CEM-R8 cells and 1 μM HC for the CEM-S2 cells), 10 μM forskolin (Fsk), 10 μM rolipram (Rol), or combinations of these agents as indicated, and cell viability was assessed by the MTS assay as described in Methods. FIG. 5C: The glucocorticoid-resistant subclone (CEM-R8) and the glucocorticoid-sensitive subclone (CEM-S2) were cultured for 72 hours in the presence of varying amounts of dibutyryl cAMP (db-cAMP) in the absence (−HC) or presence (+HC) of 1 μM hydrocortisone as indicated, and cell viability was assessed by the MTS assay as described in Methods. The data shown were normalized to the vehicle control. Results represent the mean±SD of triplicate determinations.
CCRF-CEM cells were obtained from ATCC^27. Leukemic or normal mononuclear cells were obtained by centrifugation over Histopaque 1077 (Sigma Chemical Company, St. Louis, Mo.). For purification of T cells, whole mononuclear cells from normal subjects were incubated with magnetic beads coated with appropriate antibodies, then positively purified using a magnet (Miltenyi). […]
Hoechst 33342 and DiOC6(3) apoptosis assays were performed as previously described^22,28. […] The absorbance (O.D.) of the formazan product was determined at 492 nm using a plate reader (Titertek Multiscan Plus, Labsystems). Percent cell viability was calculated as follows: (O.D. control sample−O.D. blank)/(O.D. test sample−O.D. blank)×100. […]

[2] = test system: GRE luciferase construct in CCRF-CEM cells; assay: GRE luciferase transactivation in CCRF-CEM cells; details: 40 μM forskolin or 10 μM rolipram
Method: B-CLL cells (FIG. 3A) or CCRF-CEM cells (FIG. 3B) were transiently transfected with a luciferase construct in which expression is regulated by GRE elements, followed by culture in 10 μM rolipram (R), 40 μM forskolin (Fsk), 1 μM hydrocortisone (HC), 1 mM Rp-8Br-cAMPS (Rp-8Br) or combinations of these agents. 12 hours after addition of the drugs, the relative luminescence of the samples was determined. The data shown are the mean of 8 experiments for B-CLL and two experiments for CCRF-CEM cells. The single asterisk denote a significant difference by paired student's t test between HC alone and either R/HC (FIG. 3A) or F/HC (FIG. 3B) (p<0.02). The double asterisk denotes a significant difference between Rp-8Br-cAMPS/HC and HC alone (p<0.02).
An MMTV GRE luciferase construct, originally created by Dr. R. Evans, was a gift from Dr. Remco Spanjaard (Dept. of Otolaryngology, Boston Medical Center)^29. […] Triplicate samples were analyzed with an MGM Instruments Optocomp I luminometer (Hamden, Conn.). Analysis of cell viability (trypan blue exclusion) and total protein (Pierce) verified that equivalent numbers of viable B-CLL cells were analyzed. 100 million CCRF-CEM cells were similarly transfected, cultured and analyzed except that Nucleofector program O17 was utilized. […] Data were analyzed using a two-sided paired t test for means.

[3] = test system: PDE4A, PDE4B or PDE4D expression in B-CLL cells; assay: Western analysis of PDE4 isoforms, B-CLL cells; details: 10 μM rolipram, 18 hours
Method: B-CLL and CCRF-CEM cells were incubated for 18 hours with media alone, 10 μM rolipram, 10 μM forskolin (Fsk), 1 μM hydrocortisone (HC), or the same concentration of rolipram combined with 1 μM hydrocortisone (Roli+HC) or 10 μM forskolin (Roli+Fsk). Lysates of the cells were then assessed for expression of PDE4A, PDE4B or PDE4D by Western analysis. Equal loading of samples was verified by immunoblotting for tubulin.
30 million B-CLL cells or 10 million CCRF-CEM cells were incubated for 18 hours in media alone or with the addition of drugs as indicated in the text. Western analysis was then carried out as previously described^30. The PDE4A (66C12H), PDE4B (96G7A) and PDE4D (61D10E) antibodies were kind gifts from Dr. Sharon Wolda (ICOS, Bothell, Wash.) and have been previously described^30 31.

[4] = test system: glucocorticoid-resistant subclone (CEM-R8); assay: MTS cell survival assay, CEM-R8; details: dexamethasone-resistant CCRF-CEM cells; 10 μM, 72 hours
Method: as §1, with “The data shown were normalized to the vehicle control. Results represent the mean±SD of triplicate determinations.” left out
Hoechst 33342 and DiOC6(3) apoptosis assays were performed as previously described^22,28. […] The absorbance (O.D.) of the formazan product was determined at 492 nm using a plate reader (Titertek Multiscan Plus, Labsystems). […]

## COc1ccc(C2CNC(=O)C2)cc1OC1CCCC1 (centres unmarked) [rolipram, 4-(3-cyclopentyloxy-4-methoxyphenyl)-2-pyrrolidone]
[1]
  effect on cell viability as single agent: no discernable effect
[2]
  GRE transactivation as a single agent: none
[3]
  expression of 63 and 68 kDa form of PDE4D: either no or very low level rolipram-induced expression
  expression of 63 and 68 kDa forms of PDE4B: rolipram-inducible expression
[4]
  effect on cell viability as single agent: no discernable effect
